Literature values, collected in patent US20240156808A1, “Compositions and methods to improve the therapeutic benefit of suboptimally chemical compounds and biological therapies including substituted camptothecins such as irinotecan and topotecan for the treatment of benign and neoplastic hyperproliferative disease conditions, infections, inflammatory and …” (Edison Oncology, priority 2021, published 2024).

Experiments:
CES2 = target: T1, CES2 (Homo sapiens, UniProt O00748); conditions: CES2 versus CES1
T1 sequence (O00748 27-559): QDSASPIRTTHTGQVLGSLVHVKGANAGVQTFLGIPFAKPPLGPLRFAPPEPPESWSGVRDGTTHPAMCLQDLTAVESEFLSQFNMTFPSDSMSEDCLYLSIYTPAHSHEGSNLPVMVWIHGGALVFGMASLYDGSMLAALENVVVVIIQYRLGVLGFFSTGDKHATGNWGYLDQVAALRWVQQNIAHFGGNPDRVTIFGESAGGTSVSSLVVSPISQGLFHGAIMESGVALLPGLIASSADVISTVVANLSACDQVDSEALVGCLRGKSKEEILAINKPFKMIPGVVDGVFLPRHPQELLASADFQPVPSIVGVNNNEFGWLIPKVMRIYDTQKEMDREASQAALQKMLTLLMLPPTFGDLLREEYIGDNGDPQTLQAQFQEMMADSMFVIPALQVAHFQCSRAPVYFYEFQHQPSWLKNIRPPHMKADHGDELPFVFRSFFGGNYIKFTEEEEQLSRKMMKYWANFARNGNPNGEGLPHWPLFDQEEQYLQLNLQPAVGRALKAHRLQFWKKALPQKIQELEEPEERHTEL

CCc1c2c(nc3ccc(O)cc13)-c1cc3c(c(=O)n1C2)COC(=O)[C@]3(O)CC [SN-38]
elimination half-life (SN-38): 6 to 32 h | time to peak plasma concentration (after infusion): two | distribution half-life (in vivo): about 8 minutes

CCc1c2c(nc3ccc(OC(=O)N4CCC(N5CCCCC5)CC4)cc13)-c1cc3c(c(=O)n1C2)COC(=O)[C@]3(O)CC [irinotecan, (S)-4,11-diethyl-3,4,12,14-tetrahydro-4-hydroxy-3,14-dioxo1H-pyrano[3′,4′:6,7]-indolizino[1,2-b]quinolin-9-yl-[1,4′bipiperidine]-1′-carboxylate]
affinity of CES2 for irinotecan relative to CES1 (CES2): 12.5 fold | fraction of irinotecan hydrolyzed to SN-38 (in the liver by CES1 and CES2, also in plasma by butyrylcholinesterase): 2-5%
